# How the values were obtained:
# Test in all cases: relative viability (nuclei count vs DMSO), 5 days (fraction); higher = more cells survive
# [1] = compound: C=CC(=O)N1CCC[C@@H](n2nc(-c3ccc(Oc4ccccc4)cc3)c3c(N)ncnc32)C1 [Ibrutinib] + Cc1cc(Nc2cc(N3CCN(C)CC3)nc(Sc3ccc(NC(=O)C4CC4)cc3)n2)n[nH]1 [Tozasertib] (partner 0.1 µM)
# Method in brief: (§1)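 Relative viability was taken as the ratio of nuclei in treated wells to nuclei in vehicle wells. Lung cancer cell lines in 1536-well plates received compounds by pin tool one day after seeding, either one drug alone or a fixed anchor-drug dose plus five library-drug doses (not always all listed) in √10 steps. Nuclei were counted on 4× images after 5 days of treatment, and values are medians of duplicate plates.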
# [2] = compound: C=CC(=O)Nc1cc(-n2c(=O)ccc3cnc4ccc(-c5ccc(NS(C)(=O)=O)cc5)cc4c32)ccc1C [BMX-IN-1] + CC(=O)Nc1cccc(-n2c(=O)n(C3CC3)c(=O)c3c(Nc4ccc(I)cc4F)n(C)c(=O)c(C)c32)c1 [Trametinib] (partner 0.02 µM)
# Method in brief: as §1
# [3] = compound: C=CC(=O)Nc1cc(-n2c(=O)ccc3cnc4ccc(-c5ccc(NS(C)(=O)=O)cc5)cc4c32)ccc1C [BMX-IN-1] + Nc1nc2[nH]cc(CCc3ccc(C(=O)N[C@@H](CCC(=O)O)C(=O)O)cc3)c2c(=O)[nH]1 [Pemetrexed] (partner 0.2 µM)
# Method in brief: as §1
# [4] = compound: C=CCc1cccc(/C=N/NC(=O)CN2CCN(Cc3ccccc3)CC2)c1O [PAC-1] + Cc1nc(Nc2ncc(C(=O)Nc3c(C)cccc3Cl)s2)cc(N2CCN(CCO)CC2)n1 [Dasatinib] (partner 0.075 µM)
# Method in brief: as §1
Cell Line,relative viability ([1]; first compound 0.005 µM),relative viability ([1]; first compound 0.01581 µM),relative viability ([1]; first compound 0.05 µM),relative viability ([1]; first compound 0.1581 µM),relative viability ([1]; first compound 0.5 µM),relative viability ([2]; first compound 0.02 µM),relative viability ([2]; first compound 0.2 µM),relative viability ([2]; first compound 0.6325 µM),relative viability ([2]; first compound 2 µM),relative viability ([3]; first compound 0.02 µM),relative viability ([3]; first compound 0.2 µM),relative viability ([3]; first compound 0.6325 µM),relative viability ([3]; first compound 2 µM),relative viability ([4]; first compound 0.02 µM),relative viability ([4]; first compound 0.06325 µM),relative viability ([4]; first compound 0.2 µM),relative viability ([4]; first compound 2 µM)
NCI-H441,0.596,0.64,0.801,0.73,0.809,0.451,0.53,0.613,0.548,0.225,0.267,0.282,0.256,0.593,0.628,0.438,0.573
NCI-H460,0.716,0.321,0.519,0.409,0.494,0.131,0.136,0.236,0.181,0.0558,0.0711,0.0676,0.071,0.524,0.477,0.464,0.521
NCI-H520,0.428,0.341,0.427,0.381,0.39,0.892,0.721,0.741,0.733,0.762,0.853,0.686,0.762,0.172,0.213,0.19,0.225
NCI-H522,0.503,0.521,0.476,0.55,0.46,0.687,0.805,0.728,0.744,1,1.03,1.12,1.14,0.881,0.91,0.894,0.899
NCI-H596,,0.922,0.858,0.943,0.722,0.718,0.912,0.652,0.825,0.497,0.522,0.496,0.511,0.571,0.659,0.573,0.664
NCI-H647,,0.298,0.39,0.347,0.174,0.702,0.563,0.467,0.474,0.162,0.169,0.15,0.142,0.203,0.172,0.185,0.164
NCI-H727,0.542,0.578,0.624,,0.533,0.419,0.429,0.387,0.4,,,,,0.334,0.338,0.368,0.358
NCI-H1563,,,,,,,,,,0.748,0.769,0.724,0.675,0.446,0.431,0.44,0.495
NCI-H1623,0.44,0.407,0.301,0.451,0.201,,,,,,,,,0.513,0.556,0.605,0.533
NCI-H1648,0.549,0.368,0.467,0.537,0.358,0.435,0.585,0.469,0.495,0.733,0.721,0.875,0.765,,,,
NCI-H1792,,,,,,0.645,0.485,0.44,0.391,0.903,1.28,0.885,1.17,0.996,0.77,0.763,0.755

# From the supplement of paper PMC10307832
